Test [1] has as its system Panc-1 cells. Briefly: Anti-tumor activity of NK cells activated by compounds, Panc-1 (CFSE/PI flow cytometry). The format is cell-based. The following applies: Homo sapiens, tumor cells treated with 20 μM compound 48 h, then mixed with NK cells 5:1 for 4 hours, CFSE+PI+ tumor cells, read-out: Panc-1 inhibition rate (%). As for the experimental part:
(§1) Logarithmic growth phase of Lovo, HpeG-2, A549, k562, Panc-1 cells were collected and seeded in a 6-well plate at a density of 5×10^5/mL and 2 mL/well separately. The experimental group was treated with 20 μM final drug concentration of GJDx compounds, and the control group was treated with an equal volume of RPMI1640 medium. The groups were cultured at 37° C., saturated humidity, 5% CO2 for 48 h. After that, the cells of each group were collected, centrifuged and the supernatant was removed and resuspended in PBS at a density of 1×10^6/mL. Then 2 μL of CFSE stock solution (final concentration was 10 μM) was added into the cell suspension per 1 mL and cultured at 37° C. with 5% CO2 for 30 min, and then added 5-10 times of the volume of 4° C. pre-chilled RPM 1640 complete medium, and incubated on ice for 5 minutes, discarded the supernatant by centrifugation at 4° C., and wash the cells with fresh medium for 3 times. After that, mixing the labeled tumor cells and NK cells (the NK cell culture medium was α-MEM contained 1.5 g/L sodium bicarbonate, 12.5% fetal bovine serum, and 12.5% horse serum) according to the ratio of 5:1, the mixture cells was collected and washed with flow buffer twice after incubated for 4 hours, then 50 μg/mL PI was added, and incubated at room temperature for 15 minutes in the dark, and finally testing the percentage of CFSE^+PI^+ tumor cells on the flow cytometer.
(In flow cytometry, cells or beads pass a laser one at a time.)

Test [2] deals with Lovo cells. The test is described as follows: Anti-tumor activity of NK cells activated by compounds, Lovo (CFSE/PI flow cytometry). In kind it is cell-based. The following applies: Homo sapiens, tumor cells treated with 20 μM compound 48 h, then mixed with NK cells 5:1 for 4 hours, CFSE+PI+ tumor cells, read-out: Lovo inhibition rate (%). The procedure: as §1
Test [3] relates to Panc-1 cells. Briefly: MTT tumor cell growth inhibition, Panc-1. The format is cell-based. The note with it: Homo sapiens, 48 h, read-out: Tumors growth-inhibitory activity (IC50) Panc-1. The procedure: (§2) Using MTT method to determine the growth inhibition activity of the matrine compounds on Lovo, MGC-803, Mia-paca2, HpeG-2, A549, k562, and Panc-1 cells in vitro. Logarithmic growth phase of Lovo, MGC-803, Mia-paca2, HpeG-2, A549, k562, Panc-1 cells were inoculated into 96-well plates (purchased from Institute of Biochemical Cells, Chinese Academy of Sciences, and cultured according to conventional tumor cell culture methods) at a density of 4×10^4/mL and 180 μL/well; after the cells adhered to the wall, 20 μL of drug solution was added to each well and matined the final drug concentrations were 0.1 μM, 1 μM, 10 μM, 50 μM, 100 μM respectively. After 48 h, 5 mg/mL MTT solution was added (20 μL/well) and maintained in a CO2 incubator for 3-4 h. After that, discarding the supernatant carefully, and DMSO was added (200 μL/well) when the residual liquid was air-dried, and shook for 0.5-1 h until the residual crystals was dissolved. The absorbance OD was measured at 492 nm by a microplate reader. GraphPad Prism 5 software was used to calculate the IC50 value.

The subject of test [4] is k562 cells. The test is described as follows: MTT tumor cell growth inhibition, k562. The format is cell-based. The note with it: Homo sapiens, 48 h, read-out: Tumors growth-inhibitory activity (IC50) k562. The procedure:
as §2

Test [5] has as its system HpeG-2 cells. Briefly: Anti-tumor activity of NK cells activated by compounds, HpeG-2 (CFSE/PI flow cytometry). The format is cell-based. The note with it: tumor cells treated with 20 μM compound 48 h, then mixed with NK cells 5:1 for 4 hours; CFSE+PI+ tumor cells; read-out: HpeG-2 inhibition rate (%). As for the experimental part: as §1
The test system of test [6] is MGC-803 cells. The test is described as follows: MTT tumor cell growth inhibition, MGC-803. In kind it is cell-based. The note with it: Homo sapiens, 48 h, read-out: Tumors growth-inhibitory activity (IC50) MGC-803. As for the experimental part: as §2
Test [7] relates to Mia-paca2 cells. Briefly: MTT tumor cell growth inhibition, Mia-paca2. The format is cell-based. The note with it: Homo sapiens, MIA PaCa-2, 48 h, read-out: Tumors growth-inhibitory activity (IC50) Mia-paca2. The procedure:
as §2

For test [8], the system named is HpeG-2 cells. Briefly: MTT tumor cell growth inhibition, HpeG-2. In kind it is cell-based. The following applies: 48 h, read-out: Tumors growth-inhibitory activity (IC50) HpeG-2. As for the experimental part:
as §2

The subject of test [9] is k562 cells. The test is described as follows: Anti-tumor activity of NK cells activated by compounds, k562 (CFSE/PI flow cytometry). In kind it is cell-based. The following applies: Homo sapiens, tumor cells treated with 20 μM compound 48 h, then mixed with NK cells 5:1 for 4 hours, CFSE+PI+ tumor cells, read-out: k562 inhibition rate (%). As for the experimental part:
as §1

Test [10] deals with TNF-α. Briefly: TNF-α activity inhibiting assay (LPS-stimulated peripheral blood, ELISA). The format is cell-based, human. The following applies: Homo sapiens, compound 20 μM, LPS 10 ng/mL, 6 hours, diluted peripheral blood of healthy volunteers, read-out: TNF-α inhibition rate (%). As for the experimental part:
Methods: Peripheral blood from healthy volunteers was collected with EDTA anticoagulant tubes. After being diluted 5-fold with 1640 medium (Gibco, USA), the blood was added to 96-well cell culture plates (Costar, USA) and then treated with 10 μL solution of the compound of general formula (I) of the present invention in DMSO (Sigma, USA), the final concentration of the compound was 20 μM with the final concentration of DMSO was 0.2%. After incubation for 60 minutes in an incubator at 37° C. under 5% CO2, 10 μL LPS (Sigma, USA) was added to the reaction system, and the final concentration was 10 ng/mL. After further culturing for 6 hours in the incubator at 37° C. under 5% CO2, the supernatant was collected. The content of TNF-α was determined by ELISA (BD Biosciences, USA). Absorbance was detected at OD450 nm with a microplate reader, with OD 650 nm as reference. The control, a solution containing 0.2% DMSO medium, was as 0% inhibition. Raw data and standard curves were recorded. The four-parameter drug inhibition curve was plotted by XL-fit software and the inhibition rate of each compound was calculated.
(In an ELISA, binding on a coated surface is turned into a signal by an enzyme label.)

In test [11] the test system is Lovo cells. Briefly: MTT tumor cell growth inhibition, Lovo. In kind it is cell-based. The note with it: Homo sapiens, 48 h, read-out: Tumors growth-inhibitory activity (IC50) Lovo. The procedure: as §2
Test [12] concerns A549 cells. Briefly: Anti-tumor activity of NK cells activated by compounds, A549 (CFSE/PI flow cytometry). In kind it is cell-based. The following applies: Homo sapiens, tumor cells treated with 20 μM compound 48 h, then mixed with NK cells 5:1 for 4 hours, CFSE+PI+ tumor cells, read-out: A549 inhibition rate (%). The procedure: as §1
Test [13] relates to A549 cells. The test is described as follows: MTT tumor cell growth inhibition, A549. The format is cell-based. The following applies: Homo sapiens, 48 h, read-out: Tumors growth-inhibitory activity (IC50) A549. The procedure: as §2

pIC50: −log10 of the molar value. A value given as a limit tells only on which side of the number the result lay.

`Nc1cccc2c1C(=O)N(C1CC[C@@H]3[C@H]4CCCN5CCC[C@@H](CN3C1=O)[C@@H]45)C2=O` (stereo partly shown) [GJD 02]: the inhibition at 20 µM in test [1], in test [2], in test [5], in [9], in [10] and in [12] was over 50% throughout. Besides, the pIC50 (in general, the IC50 on a negative log10 scale, so that one unit is a factor of ten) in test [3] is over 4.30; in test [4], over 4.30; in [6], 4.00 to 4.30; in test [7], 4.00 to 4.30; in test [8], over 4.30; in test [11] it was over 4.30. The negative logarithm of the IC50 (pIC50) in [13] was 4.00 to 4.30.

The values above are taken from patent US20210221812A1, “MATRINE a-KETOAMINE COMPOUNDS, PREPARATION METHOD THEREFOR AND USE THEREOF” (SHANGHAI XINGYE PHARMACEUTICAL TECHNOLOGY CO., LTD, priority 2018, published 2021).
